From ChEMBL document CHEMBL1201862, “PubChem BioAssay data set” (2004)
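Dose response: 5 concentrations. Exposure: 48 h. Format: 96-well plates. Endpoint: linear interpolation; highest concentration if not reached. Here, GI50 denotes the concentration required for 50% inhibition of growth.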 Activity calls are given as the source filed them. Cut-off read from the data, not from the text of the source: active = GI50 up to about 1.1 µM and inactive = higher.

Assays:
Test in all cases: inhibition of tumour cell growth, NCI panel, 48 h
HCC 2998 = test system: HCC 2998
IGROV-1 = test system: IGROV-1
SK-MEL-5 = test system: SK-MEL-5
OVCAR-5 = test system: OVCAR-5
BT-549 = test system: BT-549
SF-295 = test system: SF-295
DU-145 = test system: DU-145
UACC-257 = test system: UACC-257
CCRF-CEM = test system: CCRF-CEM
MDA-MB-435 = test system: MDA-MB-435
MCF7 = test system: MCF7
U-251 = test system: U-251
Malme-3M = test system: Malme-3M
OVCAR-3 = test system: OVCAR-3
786-0 = test system: 786-0
HT-29 = test system: HT-29
MDA-N = test system: MDA-N
Hs-578T = test system: Hs-578T
SK-MEL-2 = test system: SK-MEL-2
SF-539 = test system: SF-539

Row | SMILES | GI50 (HCC 2998) | GI50 (IGROV-1) | GI50 (SK-MEL-5) | GI50 (OVCAR-5) | GI50 (BT-549) | GI50 (SF-295) | GI50 (DU-145) | GI50 (UACC-257) | GI50 (CCRF-CEM) | GI50 (MDA-MB-435) | GI50 (MCF7) | GI50 (U-251) | GI50 (Malme-3M) | GI50 (OVCAR-3) | GI50 (786-0) | GI50 (HT-29) | GI50 (MDA-N) | GI50 (Hs-578T) | GI50 (SK-MEL-2) | GI50 (SF-539)
1 | COc1ccc2c3c1OC1C(=O)C=CC4(CC2)N(C)CCC314 (stereo not given) | 13.8 µM (inactive) | 23.7 µM (inactive) | 10.4 µM (inactive) | 29.5 µM (inactive) | 23.6 µM (inactive) | 38 µM (inactive) | 14.3 µM (inactive) | 28.6 µM (inactive) | 12.7 µM (inactive) | 12.2 µM (inactive) | 20.2 µM (inactive) | 19.5 µM (inactive) | 35.1 µM (inactive) | 19.4 µM (inactive) | 17.2 µM (inactive) | 28.6 µM (inactive) | 15.8 µM (inactive) | 19.3 µM (inactive) | 16.3 µM (inactive) | 
2 | CCCCc1ccc(NC(=N)N)cc1 | 16.3 µM (inactive) | 21.7 µM (inactive) | 12.9 µM (inactive) | 50.6 µM (inactive) | 24.8 µM (inactive) | 23.9 µM (inactive) | 41.4 µM (inactive) | 33.7 µM (inactive) | 16.9 µM (inactive) | 40.1 µM (inactive) | 19.7 µM (inactive) | 85.3 µM (inactive) | 38.8 µM (inactive) | 24.5 µM (inactive) | 17.7 µM (inactive) | 25.8 µM (inactive) | 27.7 µM (inactive) | 37.1 µM (inactive) | 47.6 µM (inactive) | > 10 µM (inactive)
3 | S=c1scc(-c2ccc(Cl)cc2)n1OC1CCCC1 | 23.9 µM (inactive) | 48.8 µM (inactive) | 11.4 µM (inactive) | 52.2 µM (inactive) | 30.2 µM (inactive) | 30.5 µM (inactive) | 29.4 µM (inactive) | 27 µM (inactive) |  | 15.7 µM (inactive) | 27 µM (inactive) | 15.6 µM (inactive) | 56.2 µM (inactive) | 16.7 µM (inactive) | 37 µM (inactive) | 20.9 µM (inactive) | 21.6 µM (inactive) | 82.6 µM (inactive) | 18.3 µM (inactive) | 10.8 µM (inactive)
4 | CC1CC(=O)Nc2ccc(/N=N/N(C)C)cc2N1C=O (stereo not given) | > 100 µM (inactive) | > 100 µM (inactive) | > 100 µM (inactive) | > 100 µM (inactive) | > 100 µM (inactive) | > 100 µM (inactive) | > 100 µM (inactive) | > 100 µM (inactive) | > 100 µM (inactive) | > 100 µM (inactive) | > 100 µM (inactive) | > 100 µM (inactive) | > 100 µM (inactive) | > 100 µM (inactive) | > 100 µM (inactive) | > 100 µM (inactive) | > 100 µM (inactive) | > 100 µM (inactive) | > 100 µM (inactive) | 
5 | CC1(C)[N+]([O-])=[N+]([O-])C1(C)O (stereo not given) | > 100 µM (inactive) | > 100 µM (inactive) | > 100 µM (inactive) | > 100 µM (inactive) | > 100 µM (inactive) |  | > 100 µM (inactive) | > 100 µM (inactive) | > 100 µM (inactive) | > 100 µM (inactive) | > 100 µM (inactive) | > 100 µM (inactive) | > 100 µM (inactive) | > 100 µM (inactive) | > 100 µM (inactive) | > 100 µM (inactive) | > 100 µM (inactive) | > 100 µM (inactive) | > 100 µM (inactive) | > 100 µM (inactive)
6 | C=C1CCCC(C)(C)[C@H]1C/C=C1\CCOC1=O | 23.9 µM (inactive) | 14.2 µM (inactive) | 10.2 µM (inactive) |  | 14 µM (inactive) | 17.1 µM (inactive) | 13.2 µM (inactive) | 12.1 µM (inactive) | 21.6 µM (inactive) | 10.3 µM (inactive) | 12.8 µM (inactive) | 16.8 µM (inactive) | 13.5 µM (inactive) | 15 µM (inactive) | 14.7 µM (inactive) | 13.9 µM (inactive) | 17.9 µM (inactive) | 16.9 µM (inactive) | 63.7 µM (inactive) | 17.2 µM (inactive)
7 | COc1cc(COC(=O)N(C)[C@@H](Cc2ccccc2)C(=O)O)c([N+](=O)[O-])cc1OC | > 100 µM (inactive) | > 100 µM (inactive) | > 100 µM (inactive) | > 100 µM (inactive) | > 100 µM (inactive) | > 100 µM (inactive) | > 100 µM (inactive) | > 100 µM (inactive) | > 100 µM (inactive) | > 100 µM (inactive) | > 100 µM (inactive) | > 100 µM (inactive) | > 100 µM (inactive) | > 100 µM (inactive) | > 100 µM (inactive) | > 100 µM (inactive) | > 100 µM (inactive) | > 100 µM (inactive) |  | > 100 µM (inactive)
8 | CC(=O)Oc1c2c(c3n(c1=O)CCCC3)C(=O)N(c1ccccc1)C2=O | 30.8 µM (inactive) | 78.5 µM (inactive) | 53.3 µM (inactive) | > 100 µM (inactive) | 38.2 µM (inactive) | 61 µM (inactive) | > 100 µM (inactive) |  | > 100 µM (inactive) | 46.9 µM (inactive) | > 100 µM (inactive) | > 100 µM (inactive) | > 100 µM (inactive) | 86.7 µM (inactive) | > 100 µM (inactive) | 94.2 µM (inactive) | 52.8 µM (inactive) | > 100 µM (inactive) | 45.8 µM (inactive) | > 100 µM (inactive)
9 | Cc1ccc(-n2nncc2[Si](C)(C)C)s1 | > 100 µM (inactive) |  | > 100 µM (inactive) | > 100 µM (inactive) | > 100 µM (inactive) | > 100 µM (inactive) | > 100 µM (inactive) | > 100 µM (inactive) | 22.6 µM (inactive) | > 100 µM (inactive) | > 100 µM (inactive) | > 100 µM (inactive) | > 100 µM (inactive) | > 100 µM (inactive) | > 100 µM (inactive) | > 100 µM (inactive) | > 100 µM (inactive) | > 100 µM (inactive) | > 100 µM (inactive) | > 100 µM (inactive)
10 | CC(C)=CCc1[nH]c2ccccc2c1C1=C(O)C(=O)C(c2c(CC=C(C)C)[nH]c3ccccc23)=C(O)C1=O | 1.01 µM (active) | 0.573 µM (active) | 1.76 µM (inactive) | 2.89 µM (inactive) | 0.419 µM (active) | 1.03 µM (active) | 2.39 µM (inactive) | 2.12 µM (inactive) | 1.03 µM (active) | 0.608 µM (active) | 2.26 µM (inactive) | 0.587 µM (active) | 0.628 µM (active) | 1.48 µM (inactive) | 1.56 µM (inactive) | 2.22 µM (inactive) | 1.04 µM (active) | 1.04 µM (active) | 1.64 µM (inactive) | 
11 | CCC(CCCN)Nc1cc(OC)cc2c(C)ccnc12 (stereo not given) | 18.8 µM (inactive) | 16.8 µM (inactive) | 17.8 µM (inactive) | 17.7 µM (inactive) | 14.9 µM (inactive) | 17.3 µM (inactive) | 17.5 µM (inactive) | 17.9 µM (inactive) | 18.4 µM (inactive) | 14.8 µM (inactive) | 15 µM (inactive) |  | 19.6 µM (inactive) | 15.4 µM (inactive) | 15.4 µM (inactive) | 14.3 µM (inactive) | 17.5 µM (inactive) | 13 µM (inactive) | 20.8 µM (inactive) | 18.4 µM (inactive)
12 | Nc1ccc(C(=O)N2CCC[C@H]2CO)c(N)c1 | > 100 µM (inactive) | > 100 µM (inactive) | > 100 µM (inactive) | > 100 µM (inactive) | > 100 µM (inactive) | > 100 µM (inactive) | > 100 µM (inactive) | > 100 µM (inactive) | > 100 µM (inactive) | > 100 µM (inactive) | > 100 µM (inactive) | > 100 µM (inactive) |  | > 100 µM (inactive) | > 100 µM (inactive) | > 100 µM (inactive) | > 100 µM (inactive) | > 100 µM (inactive) | > 100 µM (inactive) | > 100 µM (inactive)
13 | CCCCCCCCCCCCCCCC(=O)OCC1CCCN2CCCCC12 (stereo not given) | > 100 µM (inactive) |  | > 100 µM (inactive) | > 100 µM (inactive) | > 100 µM (inactive) | > 100 µM (inactive) | > 100 µM (inactive) | > 100 µM (inactive) | > 100 µM (inactive) | > 100 µM (inactive) | > 100 µM (inactive) | > 100 µM (inactive) | > 100 µM (inactive) | > 100 µM (inactive) | > 100 µM (inactive) | > 100 µM (inactive) | > 100 µM (inactive) | > 100 µM (inactive) | > 100 µM (inactive) | > 100 µM (inactive)
14 | CCCCCCCC/C=C(\Br)C(O)C(Br)Br (stereo not given) | 18.8 µM (inactive) | 24.7 µM (inactive) | 17.9 µM (inactive) | 19.3 µM (inactive) | 22.4 µM (inactive) | 18 µM (inactive) | 38.6 µM (inactive) | 28 µM (inactive) | 16.1 µM (inactive) | 21.5 µM (inactive) | 25.5 µM (inactive) | 30 µM (inactive) | 21.1 µM (inactive) | 17.4 µM (inactive) | 18.5 µM (inactive) |  | 21.8 µM (inactive) | 22.8 µM (inactive) | 24.8 µM (inactive) | 
15 | CCOC(=O)c1[nH]cc(C)c1-c1cccn1-c1ccc(Cl)cc1[N+](=O)[O-] | 19.4 µM (inactive) | 14.7 µM (inactive) | 14.9 µM (inactive) | 23.2 µM (inactive) | 27.2 µM (inactive) | 28.2 µM (inactive) | 35.1 µM (inactive) | 20.1 µM (inactive) | 25.6 µM (inactive) | 19.6 µM (inactive) | 30.7 µM (inactive) | 15.1 µM (inactive) |  | 12 µM (inactive) | 18.2 µM (inactive) | 16.2 µM (inactive) | 22.2 µM (inactive) | 15.8 µM (inactive) | 15.9 µM (inactive) | 19.2 µM (inactive)
